Each block holds one compound with its values, some of them ahead of it. Active and inactive are the calls of the source. The calls are words filed in the database; no cut-off is given here.
Legend:
[1] = target: Poly [ADP-ribose] polymerase 1 (Homo sapiens, UniProt P09874); experiment: Inhibition of human recombinant PARP1 in presence of NAD+ by ELISA
[2] = system: CAPAN-1; experiment: Induction of DNA double strand breaks in human CAPAN-1 cells assessed as increase in gamma-H2AX level at 10 uM incubated for 48 hrs by immunofluorescence-based laser confocal microscopy; assay type: functional, cell-based
[3] = system: CAPAN-1; experiment: Induction of apoptosis in human CAPAN-1 cells assessed as late apoptotic cells at 5 uM incubated for 96 hrs by AnnexinV-FITC/PI staining based flow cytometry (reference value: 8.99%); assay type: functional
[4] = system: CAPAN-1; experiment: Induction of DNA double strand breaks in human CAPAN-1 cells assessed as increase in gamma-H2AX level incubated for 48 hrs by western blot analysis; assay type: functional, cell-based; details: dose 0.1-1 µM, DDE = dose-dependent effect
[5] = Antiproliferative activity against human UWB1289 cells with restoration of BRCA1 expression assessed as inhibition of cell proliferation incubated for 7 days by SRB assay; assay type: functional, cell-based; details: UWB1289, 168 h
[6] = system: CAPAN-1; experiment: Antiproliferative activity against BRCA2-deficient human CAPAN-1 cells assessed as inhibition of cell proliferation incubated for 7 days by CellTiter-Glo assay; assay type: functional, cell-based; details: CAPAN-1, 168 h
[7] = Cytotoxicity against human IMR-90 cells expressing wild type BRCA-1 assessed as inhibition of cell proliferation incubated for 7 days by SRB assay; assay type: toxicity, cell-based
[8] = system: CAPAN-1; experiment: Induction of apoptosis in human CAPAN-1 cells assessed as late apoptotic cells at 1 uM incubated for 96 hrs by AnnexinV-FITC/PI staining based flow cytometry (reference value: 8.99%); assay type: functional
[9] = system: CAPAN-1; experiment: Induction of apoptosis in human CAPAN-1 cells assessed as early apoptotic cells at 5 uM incubated for 96 hrs by AnnexinV-FITC/PI staining based flow cytometry (reference value: 5.08%); assay type: functional
[10] = Cytotoxicity against human WI-38 cells expressing wild type BRCA1 assessed as inhibition of cell proliferation incubated for 7 days by SRB assay; assay type: toxicity, cell-based
[11] = system: CAPAN-1; experiment: Induction of cell cycle arrest at G2/M phase in human CAPAN-1 cells incubated for 48 hrs by propidium iodide staining based flow cytometry; assay type: functional; details: dose 1-10 µM, DDE = dose-dependent effect
[12] = system: CAPAN-1; experiment: Induction of apoptosis in human CAPAN-1 cells assessed as late apoptotic cells at 10 uM incubated for 96 hrs by AnnexinV-FITC/PI staining based flow cytometry (reference value: 8.99%); assay type: functional
[13] = system: MDA-MB-436; experiment: Antiproliferative activity against BRCA1-deficient human MDA-MB-436 cells assessed as inhibition of cell proliferation incubated for 7 days by CCK-8 assay; assay type: functional, cell-based; details: MDA-MB-436, 168 h
[14] = system: CAPAN-1; experiment: Induction of apoptosis in human CAPAN-1 cells assessed as early apoptotic cells at 1 uM incubated for 96 hrs by AnnexinV-FITC/PI staining based flow cytometry (reference value: 5.08%); assay type: functional
[15] = system: CAPAN-1; experiment: Induction of apoptosis in human CAPAN-1 cells assessed as early apoptotic cells at 10 uM incubated for 96 hrs by AnnexinV-FITC/PI staining based flow cytometry (reference value: 5.08%); assay type: functional
[16] = Antiproliferative activity against BRCA1-deficient human UWB1289 cells assessed as inhibition of cell proliferation incubated for 7 days by SRB assay; assay type: functional, cell-based; details: UWB1289, 168 h
[17] = system: MDA-MB-436; experiment: Induction of DNA double strand breaks in human MDA-MB-436 cells assessed as increase in gamma-H2AX level incubated for 48 hrs by western blot analysis; assay type: functional, cell-based; details: dose 0.1-1 µM, DDE = dose-dependent effect
[18] = system: CAPAN-1; experiment: Induction of DNA double strand breaks in human CAPAN-1 cells assessed as increase in Chk1 phosphorylation at Ser345 residue incubated for 48 hrs by western blot analysis; assay type: functional, cell-based; details: dose 0.1-1 µM
[19] = system: MDA-MB-436; experiment: Induction of DNA double strand breaks in human MDA-MB-436 cells assessed as increase in Chk1 phosphorylation at Ser345 residue incubated for 48 hrs by western blot analysis; assay type: functional, cell-based; details: dose 0.1-1 µM

Chain of Poly [ADP-ribose] polymerase 1 (P09874 whole entry): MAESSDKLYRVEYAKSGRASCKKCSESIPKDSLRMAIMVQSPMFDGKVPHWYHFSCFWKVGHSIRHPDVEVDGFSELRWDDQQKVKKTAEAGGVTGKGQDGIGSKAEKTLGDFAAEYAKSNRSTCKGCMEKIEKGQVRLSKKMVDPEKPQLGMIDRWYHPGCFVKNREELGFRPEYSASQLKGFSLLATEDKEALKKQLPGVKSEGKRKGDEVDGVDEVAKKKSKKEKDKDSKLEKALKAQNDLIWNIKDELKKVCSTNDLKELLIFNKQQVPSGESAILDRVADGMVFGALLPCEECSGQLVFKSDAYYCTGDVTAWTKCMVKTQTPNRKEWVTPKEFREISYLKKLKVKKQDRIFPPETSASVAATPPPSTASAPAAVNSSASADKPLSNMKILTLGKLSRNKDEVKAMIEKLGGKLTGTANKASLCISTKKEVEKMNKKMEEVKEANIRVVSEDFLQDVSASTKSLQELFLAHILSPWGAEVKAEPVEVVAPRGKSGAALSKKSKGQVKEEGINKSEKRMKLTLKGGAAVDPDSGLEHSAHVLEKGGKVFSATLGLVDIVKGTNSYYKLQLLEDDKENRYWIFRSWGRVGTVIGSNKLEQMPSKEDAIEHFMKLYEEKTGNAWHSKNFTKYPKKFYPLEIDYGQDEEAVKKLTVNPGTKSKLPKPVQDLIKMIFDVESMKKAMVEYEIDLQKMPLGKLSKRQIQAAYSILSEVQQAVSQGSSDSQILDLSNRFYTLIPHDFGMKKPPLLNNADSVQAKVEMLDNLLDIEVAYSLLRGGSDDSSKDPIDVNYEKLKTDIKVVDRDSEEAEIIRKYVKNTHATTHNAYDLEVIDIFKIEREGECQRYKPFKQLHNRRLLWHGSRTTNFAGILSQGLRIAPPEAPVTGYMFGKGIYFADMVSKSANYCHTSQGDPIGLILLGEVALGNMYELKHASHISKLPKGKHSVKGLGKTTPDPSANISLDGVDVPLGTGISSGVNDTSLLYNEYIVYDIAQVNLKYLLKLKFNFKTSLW

SMILES: C=C1C(=O)OC2C[C@@]3(C)CCC=C(COC(=O)CC4CCCN(C(=O)c5cc(Cc6n[nH]c(=O)c7ccccc67)ccc5F)C4)C3=CC12 (some centres not stated)
- IC50 [1]: 65.2 nM

SMILES: C=C1C(=O)OC2C[C@@]3(C)CCC=C(COC(=O)C4CN(C(=O)c5cc(Cc6n[nH]c(=O)c7ccccc67)ccc5F)C4)C3=CC12 (some centres not stated)
- IC50 [1]: 279 nM

SMILES: C[C@H]1CCC[C@]2(C)CC3OC(=O)C(CNCCC(=O)N4CCN(C(=O)c5cc(Cc6n[nH]c(=O)c7ccccc67)ccc5F)CC4)C3C=C12 (some centres not stated)
- IC50 [1]: 15.5 nM

SMILES: C[C@]12CCC=C(CO)C1=CC1C(C2)OC(=O)C1CNCCOCCOCC(=O)N1CCN(C(=O)c2cc(Cc3n[nH]c(=O)c4ccccc34)ccc2F)CC1 (some centres not stated)
- Activity [2]: Active
- Activity [3]: 16.5%
- Activity [4]: Dde
- IC50 [5]: 2570 nM
- IC50 [6]: 750 nM
- IC50 at 7 days [7]: 10100 nM
- Activity [8]: 12.6%
- Activity [9]: 9.68%
- IC50 at 7 days [10]: 12000 nM
- IC50 [1]: 5.91 nM
- Activity [11]: Dde
- Activity [12]: 33.5%
- IC50 [13]: 190 nM
- Activity [14]: 6.64%
- Activity [15]: 12.5%
- IC50 [16]: 410 nM
- Activity [17]: Dde
- Activity [18]: Active
- Activity [19]: Active

SMILES: C[C@H]1CCC[C@]2(C)CC3OC(=O)C(CNOCC(=O)N4CCN(C(=O)c5cc(Cc6n[nH]c(=O)c7ccccc67)ccc5F)CC4)C3C=C12 (some centres not stated)
- IC50 [1]: 19.7 nM

SMILES: C[C@H]1CCC[C@]2(C)CC3OC(=O)C(CNCCCC(=O)N4CCN(C(=O)c5cc(Cc6n[nH]c(=O)c7ccccc67)ccc5F)CC4)C3C=C12 (some centres not stated)
- IC50 [5]: 2250 nM
- IC50 [6]: 990 nM
- IC50 [1]: 8.33 nM
- IC50 [13]: 200 nM
- IC50 [16]: 1120 nM

SMILES: C[C@]12CCC=C(CO)C1=CC1C(C2)OC(=O)C1CNCCCCCCCC(=O)N1CCN(C(=O)c2cc(Cc3n[nH]c(=O)c4ccccc34)ccc2F)CC1 (some centres not stated)
- IC50 [1]: 422 nM

SMILES: C=C1C(=O)OC2C[C@@]3(C)CCC=C(COC(=O)CC4CCN(C(=O)c5cc(Cc6n[nH]c(=O)c7ccccc67)ccc5F)CC4)C3=CC12 (some centres not stated)
- IC50 [1]: 69.9 nM

SMILES: C[C@H]1CCC[C@]2(C)CC3OC(=O)C(CN(C)CC(=O)N4CCN(C(=O)c5cc(Cc6n[nH]c(=O)c7ccccc67)ccc5F)CC4)C3C=C12 (some centres not stated)
- IC50 [1]: 20.3 nM

SMILES: C=C1C(=O)O[C@@H]2C[C@@]3(C)CCC[C@H](C)C3=C[C@H]12 [HELENINE]
- IC50 [1]: > 10000 nM

SMILES: C=C1C(=O)OC2C[C@@]3(C)CCC=C(COC(=O)CCNC(=O)c4cc(Cc5n[nH]c(=O)c6ccccc56)ccc4F)C3=CC12 (some centres not stated)
- IC50 [1]: 134 nM

SMILES: C[C@H]1CCC[C@]2(C)CC3OC(=O)C(CNCCCCCCCC(=O)N4CCN(C(=O)c5cc(Cc6n[nH]c(=O)c7ccccc67)ccc5F)CC4)C3C=C12 (some centres not stated)
- Activity [2]: Active
- Activity [3]: 13.9%
- Activity [4]: Dde
- IC50 [5]: 1430 nM
- IC50 [6]: 870 nM
- IC50 at 7 days [7]: 11700 nM
- Activity [8]: 14.4%
- Activity [9]: 7.21%
- IC50 at 7 days [10]: 11800 nM
- IC50 [1]: 2.99 nM
- Activity [11]: Dde
- Activity [12]: 58.2%
- IC50 [13]: 190 nM
- Activity [14]: 5.52%
- Activity [15]: 35.4%
- IC50 [16]: 270 nM
- Activity [17]: Dde
- Activity [18]: Active
- Activity [19]: Active

SMILES: C[C@]12CCC=C(CO)C1=CC1C(C2)OC(=O)C1CN1CCN(C(=O)c2cc(Cc3n[nH]c(=O)c4ccccc34)ccc2F)CC1 (some centres not stated)
- IC50 [1]: 94.9 nM

SMILES: C=C1C(=O)OC2C[C@@]3(C)CCC=C(COC(=O)COCCOCCNC(=O)c4cc(Cc5n[nH]c(=O)c6ccccc56)ccc4F)C3=CC12 (some centres not stated)
- IC50 [1]: 38.6 nM

SMILES: C[C@H]1CCC[C@]2(C)CC3OC(=O)C(CN(C)CCCC(=O)N4CCN(C(=O)c5cc(Cc6n[nH]c(=O)c7ccccc67)ccc5F)CC4)C3C=C12 (some centres not stated)
- IC50 [1]: 43 nM

SMILES: C=C1C(=O)OC2C[C@@]3(C)CCC=C(CN4CCN(C(=O)c5cc(Cc6n[nH]c(=O)c7ccccc67)ccc5F)CC4)C3=CC12 (some centres not stated)
- IC50 [1]: 170 nM

SMILES: O=C(c1cc(Cc2n[nH]c(=O)c3ccccc23)ccc1F)N1CCN(C(=O)C2CC2)CC1 [OLAPARIB]
- Activity [2]: Active
- Activity [3]: 12.9%
- Activity [4]: Dde
- IC50 [5]: 4650 nM
- IC50 [6]: 530 nM
- Activity [8]: 10.1%
- Activity [9]: 5.74%
- Activity [12]: 19%
- IC50 [13]: 100 nM
- Activity [14]: 4.92%
- Activity [15]: 9.82%
- IC50 [16]: 660 nM
- Activity [17]: Dde

More lines, main results first:

- IC50 [1]: 2600 nM
SMILES: C=C1C(=O)OC2C[C@@]3(C)CCC=C(COC(=O)c4cc(Cc5n[nH]c(=O)c6ccccc56)ccc4F)C3=CC12 (some centres not stated)

- IC50 [1]: 88.4 nM
SMILES: C[C@]12CCC=C(C=O)C1=CC1C(C2)OC(=O)C1CNCCOCCOCC(=O)N1CCN(C(=O)c2cc(Cc3n[nH]c(=O)c4ccccc34)ccc2F)CC1 (some centres not stated)

- IC50 [1]: 129 nM
SMILES: C=C1C(=O)OC2C[C@@]3(C)CCC=C(COC(=O)CCCC4CCN(C(=O)c5cc(Cc6n[nH]c(=O)c7ccccc67)ccc5F)CC4)C3=CC12 (some centres not stated)

- IC50 [1]: 25.5 nM
SMILES: C[C@H]1CCC[C@]2(C)CC3OC(=O)C(CNCC(=O)N4CCN(C(=O)c5cc(Cc6n[nH]c(=O)c7ccccc67)ccc5F)CC4)C3C=C12 (some centres not stated)

- IC50 [1]: 73.4 nM
SMILES: C[C@H]1CCC[C@]2(C)CC3OC(=O)C(CNCCOCCOCCOCC(=O)N4CCN(C(=O)c5cc(Cc6n[nH]c(=O)c7ccccc67)ccc5F)CC4)C3C=C12 (some centres not stated)

- IC50 [1]: 2.18 nM
- IC50 [13]: 2190 nM
SMILES: C=C1C(=O)OC2C[C@@]3(C)CCC=C(COC(=O)CCN(C)C(=O)c4cc(Cc5n[nH]c(=O)c6ccccc56)ccc4F)C3=CC12 (some centres not stated)
- IC50 [5]: 1210 nM
- IC50 [6]: 1280 nM
- IC50 [16]: 900 nM

- IC50 [1]: 79.2 nM
SMILES: C=C1C(=O)OC2C[C@@]3(C)CCC=C(COC(=O)CCC4CCN(C(=O)c5cc(Cc6n[nH]c(=O)c7ccccc67)ccc5F)CC4)C3=CC12 (some centres not stated)

- IC50 [1]: 43.9 nM
SMILES: C[C@H]1CCC[C@]2(C)CC3OC(=O)C(CN(C)CCC(=O)N4CCN(C(=O)c5cc(Cc6n[nH]c(=O)c7ccccc67)ccc5F)CC4)C3C=C12 (some centres not stated)

- IC50 [1]: 136 nM
SMILES: C[C@H]1CCC[C@]2(C)CC3OC(=O)C(CN4CCN(C(=O)c5cc(Cc6n[nH]c(=O)c7ccccc67)ccc5F)CC4)C3C=C12 (some centres not stated)

Reference: ChEMBL document CHEMBL5113471 (Eur J Med Chem, 2022)
